{
  "source": "paper PMC4954775",
  "about": "(Nature chemical biology, 2013)",
  "biological_target": "T1, α-L-iduronidase (IDUA) (Homo sapiens, UniProt P35475)",
  "T1 sequence (P35475 28-653)": "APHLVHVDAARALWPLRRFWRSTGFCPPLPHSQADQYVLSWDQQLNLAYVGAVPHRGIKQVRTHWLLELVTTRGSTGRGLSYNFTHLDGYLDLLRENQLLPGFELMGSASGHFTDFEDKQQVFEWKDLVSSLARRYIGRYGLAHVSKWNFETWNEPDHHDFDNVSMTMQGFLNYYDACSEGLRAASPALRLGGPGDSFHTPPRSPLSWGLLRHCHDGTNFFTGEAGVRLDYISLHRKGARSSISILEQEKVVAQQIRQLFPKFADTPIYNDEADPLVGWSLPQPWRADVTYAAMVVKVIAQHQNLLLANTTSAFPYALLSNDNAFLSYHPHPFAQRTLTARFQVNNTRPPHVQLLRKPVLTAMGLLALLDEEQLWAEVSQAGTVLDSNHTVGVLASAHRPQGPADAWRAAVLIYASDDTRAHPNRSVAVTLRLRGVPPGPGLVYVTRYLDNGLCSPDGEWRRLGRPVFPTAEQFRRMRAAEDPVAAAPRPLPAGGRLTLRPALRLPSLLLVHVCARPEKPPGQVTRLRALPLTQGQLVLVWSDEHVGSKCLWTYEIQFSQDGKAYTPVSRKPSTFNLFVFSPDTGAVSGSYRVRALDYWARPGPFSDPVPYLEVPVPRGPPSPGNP",
  "assay": "X-ray crystal structure",
  "format": "biochemical",
  "note": "pIC50: −log10 of the molar value.",
  "data": [
    {"smiles": "O=C(O)[C@@H]1NC[C@H](O)[C@@H](O)[C@@H]1O", "note": "[IdoADNJ, [2R, 3R, 4R, 5S]-2-carboxy-3,4,5-trihydroxy-piperidine]", "values": [
      {"measurement": "pIC50", "value": "~2.52"}
    ]}
  ]
}
